From article PMC6187366, “Highly Sensitive Label-Free Detection of Small Molecules with an Optofluidic Microbubble Resonator” (Micromachines, 2018)

Target: Streptavidin (SA) (Streptomyces avidinii, UniProt P22629)
Experiment: label-free optofluidic microbubble resonator, kinetic kon/koff global Langmuir fit
Format: binding
Settings: read-out: ka (M)^-1 (converted)
Description: label-free optofluidic microbubble resonator, kinetic kon/koff global Langmuir fit on Streptavidin (SA)

Streptavidin (SA), sequence (P22629 25-183): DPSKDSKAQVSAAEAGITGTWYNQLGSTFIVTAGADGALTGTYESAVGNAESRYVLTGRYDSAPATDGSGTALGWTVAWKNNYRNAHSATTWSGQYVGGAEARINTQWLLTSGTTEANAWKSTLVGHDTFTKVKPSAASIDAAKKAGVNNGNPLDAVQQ

## C=CCc1ccc(O)c(-c2cc(CC=C)ccc2O)c1 [magnolol]
  Kd: 2.13e-11 M
